Legend:
human recombinant BACE1 = human recombinant BACE1 (Homo sapiens (Human), UniProt P56817); experiment: In vitro enzymatic BACE1 FRET assay; assay type: biochemical; details: read-out: IC50 IP (μM) BACE1 enzyme
Method in brief: (§1)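 FRET cleavage assay using Ni-NTA-purified recombinant protease and 50 nM quenched peptide substrate, 1 h. Stopped by neutralising with Tris; fluorescence at 488/590 nm.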

human recombinant BACE2 = human recombinant BACE2 (Homo sapiens (Human), UniProt Q9Y5Z0); experiment: In vitro enzymatic BACE2 FRET assay; assay type: biochemical; details: read-out: IC50 IP (μM) BACE2 enzyme
human recombinant BACE2, sequence (Q9Y5Z0 63-518): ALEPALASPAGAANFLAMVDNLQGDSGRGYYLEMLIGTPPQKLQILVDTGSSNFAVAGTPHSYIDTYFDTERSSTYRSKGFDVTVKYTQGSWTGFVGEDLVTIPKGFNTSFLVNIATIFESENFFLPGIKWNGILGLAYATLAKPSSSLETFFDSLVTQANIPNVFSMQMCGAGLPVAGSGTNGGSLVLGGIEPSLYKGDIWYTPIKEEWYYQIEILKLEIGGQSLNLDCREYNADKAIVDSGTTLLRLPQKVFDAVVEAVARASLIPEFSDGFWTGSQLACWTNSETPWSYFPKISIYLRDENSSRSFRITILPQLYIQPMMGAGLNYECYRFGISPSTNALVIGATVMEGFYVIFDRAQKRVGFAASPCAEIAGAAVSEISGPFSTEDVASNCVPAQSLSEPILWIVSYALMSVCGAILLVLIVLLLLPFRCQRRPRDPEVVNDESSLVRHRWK
Method in brief: as §1

[1] = system: Aβ40 in conditioned medium of cells stably expressing Amyloid Precursor Protein (APP); experiment: In vitro BACE-1 cell-based assay (Aβ40 sandwich ELISA); details: read-out: IC50 IP (μM) BACE1 cell
Method in brief: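 APP-stable cells, pre-cultured 24 h at 37° C in DMEM/10% FBS, were treated 24 h with compound in a 10-point series starting at 100 μM or 10 μM (0.1% DMSO final). Secreted Aβ40 in conditioned medium was measured by pAb40/biotin-6E10 sandwich ELISA with Europium time-resolved fluorescence; IC50 from percent inhibition versus concentration.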

Recombinant Cat D = Recombinant Cat D (Homo sapiens (Human), UniProt P07339); experiment: In vitro enzymatic Cathepsin D (Cat D) FRET assay; assay type: biochemical; details: read-out: IC50 IP (μM) CatD
Recombinant Cat D, sequence (P07339 65-412): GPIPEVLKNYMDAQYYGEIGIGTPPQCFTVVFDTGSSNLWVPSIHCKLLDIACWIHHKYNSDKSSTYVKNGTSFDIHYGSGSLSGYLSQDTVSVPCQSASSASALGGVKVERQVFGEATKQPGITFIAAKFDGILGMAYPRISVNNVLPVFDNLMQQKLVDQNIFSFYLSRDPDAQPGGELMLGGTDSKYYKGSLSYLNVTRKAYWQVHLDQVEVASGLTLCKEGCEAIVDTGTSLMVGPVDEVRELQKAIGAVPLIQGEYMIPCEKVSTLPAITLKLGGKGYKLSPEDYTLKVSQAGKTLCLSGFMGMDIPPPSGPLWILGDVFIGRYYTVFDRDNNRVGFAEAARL
Method in brief: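 Assay pH is 3.5 (0.05 M citrate, 5 mM CHAPS, 10% DMSO final) with Cat D from CHO cells. A 20 nM quenched peptide substrate is cleaved over one hour; the reaction is ended with Tris and read by fluorescence (ex 500, em 580 nm).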

human recombinant BACE1, sequence (P56817 46-501): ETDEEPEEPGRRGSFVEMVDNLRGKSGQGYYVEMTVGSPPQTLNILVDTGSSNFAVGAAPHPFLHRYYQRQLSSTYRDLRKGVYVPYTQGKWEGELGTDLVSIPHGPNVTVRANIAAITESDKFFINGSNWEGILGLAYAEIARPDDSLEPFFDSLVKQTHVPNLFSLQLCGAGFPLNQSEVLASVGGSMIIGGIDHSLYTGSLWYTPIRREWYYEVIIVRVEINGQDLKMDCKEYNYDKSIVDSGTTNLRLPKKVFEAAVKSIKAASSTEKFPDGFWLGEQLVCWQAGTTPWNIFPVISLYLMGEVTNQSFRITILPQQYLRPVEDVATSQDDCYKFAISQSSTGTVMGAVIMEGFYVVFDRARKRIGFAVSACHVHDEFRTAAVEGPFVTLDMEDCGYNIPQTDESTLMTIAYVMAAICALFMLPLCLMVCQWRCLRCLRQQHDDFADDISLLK

Row | SMILES | IC50 (human recombinant BACE1) [µM] | IC50 (human recombinant BACE2) [µM] | IC50 [1] [µM] | IC50 (Recombinant Cat D) [µM]
1 | C[C@]1(c2cc(NC(=O)c3ccc(Cl)cn3)ccc2F)N=C(N)S[C@]2(CO)[C@H]1C2(F)F [Example 704, N-(3-((1S,5S,6R)-3-amino-7,7-difluoro-1-(hydroxymethyl)-5-methyl-2-thia-4-azabicyclo[4.1.0]hept-3-en-5-yl)-4-fluorophenyl)-5-chloro-2-pyridinecarboxamide] | 0.002 | < 0.00203 | 0.00557 | 141
2 | C[C@]1(c2cc(Nc3nccc4nc(OCc5cocn5)cnc34)ccc2F)N=C(N)S[C@]2(CO)[C@H]1C2(F)F [Example 706, ((1S,5S,6R)-3-amino-7,7-difluoro-5-(2-fluoro-5-((2-(1,3-oxazol-4-ylmethoxy)pyrido[3,4-b]pyrazin-5-yl)amino)phenyl)-5-methyl-2-thia-4-azabicyclo[4.1.0]hept-3-en-1-yl)methanol] | 0.00292 | 0.0294 | 0.0086 | 354
3 | COC[C@@]12SC(N)=N[C@](C)(c3cc(NC(=O)c4ccc(Cl)cn4)ccc3F)[C@@H]1C2(F)F [Example 710, N-(3-((1S,5S,6R)-3-amino-7,7-difluoro-1-(methoxymethyl)-5-methyl-2-thia-4-azabicyclo[4.1.0]hept-3-en-5-yl)-4-fluorophenyl)-5-chloro-2-pyridinecarboxamide] | 0.00599 | < 0.00203 | 0.055 | 379
4 | CC(C)(O)[C@@]12SC(N)=N[C@](C)(c3cc(NC(=O)c4ccc(Cl)cn4)ccc3F)[C@@H]1C2(F)F [Example 711, N-(3-((1S,5S,6R)-3-amino-7,7-difluoro-1-(1-hydroxy-1-methylethyl)-5-methyl-2-thia-4-azabicyclo[4.1.0]hept-3-en-5-yl)-4-fluorophenyl)-5-chloro-2-pyridinecarboxamide] | 0.00311 | < 0.00203 | 0.014 | 753
5 | C#CCOc1cnc2c(Nc3ccc(F)c([C@@]4(C)N=C(N)S[C@]5([C@@H](C)O)[C@H]4C5(F)F)c3)nccc2n1 [Example 713, (1R)-1-((1S,5S,6R)-3-amino-7,7-difluoro-5-(2-fluoro-5-((2-(2-propyn-1-yloxy)pyrido[3,4-b]pyrazin-5-yl)amino)phenyl)-5-methyl-2-thia-4-azabicyclo[4.1.0]hept-3-en-1-yl)ethanol] | 0.000864 | 0.00394 | 0.00543 | 547
6 | C#CCOc1cnc2c(Nc3ccc(F)c([C@@]4(C)N=C(N)S[C@]5([C@H](C)O)[C@H]4C5(F)F)c3)nccc2n1 [Example 714, (1S)-1-((1S,5S,6R)-3-amino-7,7-difluoro-5-(2-fluoro-5-((2-(2-propyn-1-yloxy)pyrido[3,4-b]pyrazin-5-yl)amino)phenyl)-5-methyl-2-thia-4-azabicyclo[4.1.0]hept-3-en-1-yl)ethanol] | 0.00102 | 0.00913 | 0.0109 | 613
7 | COC[C@]12C[C@H]1[C@@](CF)(c1cc(NC(=O)c3ncc(C#N)cc3C)ccc1F)N=C(N)S2 [Example 716, N-(3-((1S,5S,6S)-3-amino-5-(fluoromethyl)-1-(methoxymethyl)-2-thia-4-azabicyclo[4.1.0]hept-3-en-5-yl)-4-fluorophenyl)-5-cyano-3-methyl-2-pyridinecarboxamide] | 0.00216 | 0.00196 | 0.00431 | 2290
8 | C#CCOc1cnc2c(Nc3ccc(F)c([C@@]4(CF)N=C(N)S[C@@]5(CC#N)C[C@H]54)c3)nccc2n1 [Example 720, ((1R,5S,6S)-3-amino-5-(fluoromethyl)-5-(2-fluoro-5-((2-(2-propyn-1-yloxy)pyrido[3,4-b]pyrazin-5-yl)amino)phenyl)-2-thia-4-azabicyclo[4.1.0]hept-3-en-1-yl)acetonitrile] | 0.000935 | 0.0273 | 0.00151 | 648

The remaining compounds from weak to strong by IC50 (human recombinant BACE1), led by results:

Row | IC50 (human recombinant BACE1) [µM] | IC50 (human recombinant BACE2) [µM] | IC50 [1] [µM] | IC50 (Recombinant Cat D) [µM] | SMILES
9 | 0.0118 | < 0.00203 | 0.0209 | 684 | NC1=N[C@](CF)(c2cc(NC(=O)c3ccc(Cl)cn3)ccc2F)[C@@H]2C[C@]2(Cn2ccnn2)S1 [Example 722, N-(3-((1S,5S,6S)-3-amino-5-(fluoromethyl)-1-(1H-1,2,3-triazol-1-ylmethyl)-2-thia-4-azabicyclo[4.1.0]hept-3-en-5-yl)-4-fluorophenyl)-5-chloro-2-pyridinecarboxamide]
10 | 0.0092 | 0.0257 | 0.104 | 148 | COC[C@@]12SC(N)=N[C@](C)(c3cc(Nc4ncnc5cc(C#N)cnc45)ccc3F)[C@@H]1C2(F)F [Example 709, 4-((3-((1S,5S,6R)-3-amino-7,7-difluoro-1-(methoxymethyl)-5-methyl-2-thia-4-azabicyclo[4.1.0]hept-3-en-5-yl)-4-fluorophenyl)amino)pyrido[3,2-d]pyrimidine-7-carbonitrile]
11 | 0.0072 | 0.00332 | 0.0239 | > 400 | COC[C@]12C[C@H]1[C@@](CF)(c1cc(Nc3nccc4cc(C#N)cnc34)ccc1F)N=C(N)S2 [Example 717, 8-((3-((1S,5S,6S)-3-amino-5-(fluoromethyl)-1-(methoxymethyl)-2-thia-4-azabicyclo[4.1.0]hept-3-en-5-yl)-4-fluorophenyl)amino)-1,7-naphthyridine-3-carbonitrile]
12 | 0.00594 | 0.011 | 0.0153 | 340 | C[C@]1(c2cc(Nc3ncnc4cc(C#N)cnc34)ccc2F)N=C(N)S[C@]2(CO)[C@H]1C2(F)F [Example 703, 4-((3-((1S,5S,6R)-3-amino-7,7-difluoro-1-(hydroxymethyl)-5-methyl-2-thia-4-azabicyclo[4.1.0]hept-3-en-5-yl)-4-fluorophenyl)amino)pyrido[3,2-d]pyrimidine-7-carbonitrile]
13 | 0.00442 | 0.00397 | 0.0138 | 1490 | N#CC[C@]12C[C@H]1[C@@](CF)(c1cc(Nc3nccc4cc(C#N)cnc34)ccc1F)N=C(N)S2 [Example 719, 8-((3-((1R,5S,6S)-3-amino-1-(cyanomethyl)-5-(fluoromethyl)-2-thia-4-azabicyclo[4.1.0]hept-3-en-5-yl)-4-fluorophenyl)amino)-1,7-naphthyridine-3-carbonitrile]
14 | 0.00409 | 0.00881 | 0.00635 | 918 | CCOC[C@]12C[C@H]1[C@@](CF)(c1cc(NC(=O)c3ncc(C#N)cc3C)ccc1F)N=C(N)S2 [Example 715, N-(3-((1S,5S,6S)-3-amino-1-(ethoxymethyl)-5-(fluoromethyl)-2-thia-4-azabicyclo[4.1.0]hept-3-en-5-yl)-4-fluorophenyl)-5-cyano-3-methyl-2-pyridinecarboxamide]
15 | 0.00367 | 0.00131 | 0.04 | 921 | N#CC[C@]12C[C@H]1[C@@](CF)(c1cc(NC(=O)c3ccc(Cl)cn3)ccc1F)N=C(N)S2 [Example 718, N-(3-((1R,5S,6S)-3-amino-1-(cyanomethyl)-5-(fluoromethyl)-2-thia-4-azabicyclo[4.1.0]hept-3-en-5-yl)-4-fluorophenyl)-5-chloro-2-pyridinecarboxamide]
16 | 0.00162 | 0.0677 | 0.00474 | 2130 | N#CC[C@]12C[C@H]1[C@@](CF)(c1cc(Nc3nccc4nc(OCc5ncco5)cnc34)ccc1F)N=C(N)S2 [Example 721, ((1R,5S,6S)-3-amino-5-(fluoromethyl)-5-(2-fluoro-5-((2-(1,3-oxazol-2-ylmethoxy)pyrido[3,4-b]pyrazin-5-yl)amino)phenyl)-2-thia-4-azabicyclo[4.1.0]hept-3-en-1-yl)acetonitrile]
17 | 0.00115 | 0.224 | 0.00826 | 569 | CNC(=O)[C@]12C[C@H]1[C@@](C)(c1cc(NC(=O)c3ccc(OCC(F)(F)F)cn3)cc(F)c1F)N=C(N)S2 [Example 700, (1S,5S,6S)-3-amino-5-(2,3-difluoro-5-(((5-(2,2,2-trifluoroethoxy)-2-pyridinyl)carbonyl)amino)phenyl)-N,5-dimethyl-2-thia-4-azabicyclo[4.1.0]hept-3-ene-1-carboxamide]
18 | 0.000986 | 0.269 | 0.0344 | 362 | CNC(=O)[C@]12C[C@H]1[C@@](C)(c1cc(NC(=O)c3ncc(OCC(F)(F)F)cc3C)cc(F)c1F)N=C(N)S2 [Example 702, (1S,5S,6S)-3-amino-5-(2,3-difluoro-5-(((3-methyl-5-(2,2,2-trifluoroethoxy)-2-pyridinyl)carbonyl)amino)phenyl)-N,5-dimethyl-2-thia-4-azabicyclo[4.1.0]hept-3-ene-1-carboxamide]
19 | 0.000943 | 0.0782 | 0.00309 | 587 | CNC(=O)[C@]12C[C@H]1[C@@](C)(c1cc(NC(=O)c3cnc(OCC(F)(F)F)cn3)cc(F)c1F)N=C(N)S2 [Example 701, (1S,5S,6S)-3-amino-5-(2,3-difluoro-5-(((5-(2,2,2-trifluoroethoxy)-2-pyrazinyl)carbonyl)amino)phenyl)-N,5-dimethyl-2-thia-4-azabicyclo[4.1.0]hept-3-ene-1-carboxamide]

Reference: US20160046618A1, “Cyclopropyl Fused Thiazin-2-Amine Compounds as Beta-Secretase Inhibitors and Methods of Use” (AMGEN INC., priority 2014, published 2016)
